Here are results for eight compounds from ChEMBL document CHEMBL4342451, “α-Glucosidase Inhibitory Isomeric Corniculatolides from the Stems of the Indian Mangrove Plant, Xylocarpus granatum” (J Nat Prod, 2020).

The source made the active and inactive calls. The calls are words filed in the database; no cut-off is given here. Bounds are passed on as bounds.

Test [1] in a line: Inhibition of Saccharomyces cerevisiae alpha-glucosidase assessed as decrease in release of p-nitrophenol using pNPG as substrate preincubated for 15 min followed by substrate addition and measured after 5 mins by spectrophotometric method.
For the next test, the system named is MIA PaCa-2. Description: Cytotoxicity against human MIAPaCa2 cells assessed as reduction in cell viability at 1 to 100 uM incubated for 24 to 48 hrs by SRB assay. It is filed as functional, cell-based. Background: The SRB assay estimates cell density from bound dye.
For the next test, the system named is DU-145. Description: Cytotoxicity against human DU145 cells assessed as reduction in cell viability at 1 to 100 uM incubated for 24 to 48 hrs by SRB assay. It is filed as functional, cell-based.
The next test concerns MCF7. Description: Cytotoxicity against human MCF7 cells assessed as reduction in cell viability at 1 to 100 uM incubated for 24 to 48 hrs by SRB assay. It is filed as functional, cell-based.
For a further test, the system named is HCT-116. Description: Cytotoxicity against human HCT116 cells assessed as reduction in cell viability at 1 to 100 uM incubated for 24 to 48 hrs by SRB assay. It is filed as functional, cell-based.

Consider `O=C1CCc2ccc(O)c(c2)Oc2ccc(cc2)CCCO1` [CORNICULATOLIDE A], for which, in test [1], the 50% inhibitory concentration (IC50) (usually the point on the concentration scale where inhibition reaches its midpoint) came out at 187 µM. Moreover, the result in the test with MIA PaCa-2, with DU-145, with MCF7 and in the test with HCT-116 was inactive.

For the compound `O=C1CCc2cc(O)c(O)c(c2)Oc2ccc(cc2)CCCO1`, the IC50 in test [1] came to 24.8 µM. Besides, the result in the test with MIA PaCa-2, in the test with DU-145, in the test on MCF7 and with HCT-116 was inactive.

Turning to `COc1c(O)cc2cc1Oc1ccc(cc1)CCCOC(=O)CC2`, in test [1], the 50% inhibitory concentration (IC50) was > 200 µM. The outcome with MIA PaCa-2, in the test on DU-145, in the test with MCF7 and in the test with HCT-116 was inactive.

As to `COc1cc2cc(c1OC)Oc1ccc(cc1)CCC(=O)OCCC2`, in test [1], the concentration for half-maximal inhibition (IC50) turned out to be 134 µM. The outcome in the test on MIA PaCa-2, with DU-145, in the test with MCF7 and in the test on HCT-116 was inactive.

On to `O=C1CCc2ccc(cc2)Oc2cc(ccc2O)CCCO1` [ISOCORNICULATOLIDE A], for which, in test [1], the IC50 was > 200 µM. Further, the result in the test on MIA PaCa-2, in the test with DU-145, in the test on MCF7 and in the test with HCT-116 was inactive.

With `COc1cc2cc(c1OC)Oc1ccc(cc1)CCCOC(=O)CC2`, the IC50 in test [1] stood at 72.3 µM. The outcome in the test on MIA PaCa-2, with DU-145, in the test with MCF7 and in the test on HCT-116 was inactive.

Regarding `C[C@H]1O[C@H](O[C@H]2[C@H](O)[C@@H](O)[C@@H](O[C@H]3[C@H](O)[C@@H](O)C(O)O[C@@H]3CO)O[C@@H]2CO)[C@H](O)[C@@H](O)[C@@H]1N[C@H]1C=C(CO)[C@@H](O)[C@H](O)[C@H]1O` (stereo partly specified) [ACARBOSE], the half-inhibitory concentration (IC50) in test [1] was determined as 12.2 µM.

In the case of `COc1ccc2cc1Oc1ccc(cc1)CCCOC(=O)CC2`, the IC50 in test [1] amounted to 65.4 µM. In addition, the result with MIA PaCa-2, in the test with DU-145, in the test with MCF7 and with HCT-116 was inactive.
